Data on one substance can be found in patent US9211313B2, “Methods and compound to inhibit Ca2+ permeable cation conductance” (priority 2011, dated 2015).

For this experiment, the system named is neurite. The experiment is described as follows: Neurite initiation and neurite length. It is filed as cell-based. The source says:
The peptide GsMTx4 of the present invention can be prepared for pharmaceutical use by incorporation with a pharmaceutically acceptable carrier or diluent. The peptide can be formulated into tablets, capsules, caplets and the like. Suitable carriers for tablets include calcium carbonate, starch, lactose, talc, magnesium stearate and gum acacia. The peptide can also be formulated for oral, parenteral or intravenous administration in aqueous solutions, aqueous alcohol, glycol or oil solutions or emulsions. The peptide can also be formulated for inhaling by encapsulating to facilitate alveolar absorption as has been done for insulin (Inhale Therapeutic Systems, San Carlos, Calif., inhale.com). Pharmaceutical compositions suitable for such routes of administration are well known in the art. For example, suitable forms and compositions of pharmaceutical preparations can be found in Remington's Pharmaceutical Science, 1980, 15^thed. Mack Publishing Co., Easton, Pa. Thus, the peptide GsMTx4 can be administered orally, subcutaneously, parenterally, intravenously, intramuscularly or intranasally. The peptide may also be applied to medical devices that will come into contact blood. Both L and D enantiomers of GsMTx4's and its variants can be used for the present invention. We have previously shown that both L- and D-GsMTx4 block mechanosensitive channel (MSC) activity. Although, we have noted differences in the effects of these enantiomers, both forms are effective. For example, we have observed that the ability of the mirror image form (D-enantiomer) to inhibit mechanically activated ion channels is similar to the wild type peptide (L-form) (Suchyna et al 2004). […] Thus, both L and the D forms can be used in the present invention.

“Grammastola spatulata mechanotoxin 4 (GCLEFWWKCNPNDDKCCRPKLKCSKLFKLCNFSF; listed as Grammastola spatulata) [GsMTx-4]”: the “effect on neurite length” value is given as “no significant effect” and the neurite initiation result was “stimulate”.
